According to patent US20250154144A1 (CHILDREN'S HOSPITAL MEDICAL CENTER, priority 2021, published 2025):

How the values were obtained:
MOLM14 D835Y cells = test: cells; assay type: cell-based; conditions: Homo sapiens, MOLM-14, 48 h, 48 hours, Cell Titer Glo; read-out: MOLM14 D835Y IC50
MOLM14 F691L cells = test: cells; assay type: cell-based; conditions: Homo sapiens, MOLM-14, 48 h, 48 hours, Cell Titer Glo; read-out: MOLM14 F691L IC50
FLT3 = target: T1, FLT3 (Homo sapiens, UniProt P36888); test: RBC HotSpot Kinase Assay, FLT3; conditions: FLT3 IC50
T1 sequence (P36888 610-943 limits assumed): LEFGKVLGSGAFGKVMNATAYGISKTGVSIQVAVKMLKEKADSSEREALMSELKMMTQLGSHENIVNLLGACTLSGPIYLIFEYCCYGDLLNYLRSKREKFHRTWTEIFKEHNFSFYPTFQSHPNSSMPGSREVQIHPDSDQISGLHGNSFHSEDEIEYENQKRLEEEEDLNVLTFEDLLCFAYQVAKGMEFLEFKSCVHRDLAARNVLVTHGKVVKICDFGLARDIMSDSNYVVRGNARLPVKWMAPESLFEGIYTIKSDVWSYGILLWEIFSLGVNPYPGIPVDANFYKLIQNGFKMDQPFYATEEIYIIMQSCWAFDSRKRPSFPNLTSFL

IRAK1 = IRAK1 (Homo sapiens, UniProt P51617); test: RBC HotSpot Kinase Assay, IRAK1; conditions: IRAK1 IC50
Sequence of IRAK1 (P51617 whole entry): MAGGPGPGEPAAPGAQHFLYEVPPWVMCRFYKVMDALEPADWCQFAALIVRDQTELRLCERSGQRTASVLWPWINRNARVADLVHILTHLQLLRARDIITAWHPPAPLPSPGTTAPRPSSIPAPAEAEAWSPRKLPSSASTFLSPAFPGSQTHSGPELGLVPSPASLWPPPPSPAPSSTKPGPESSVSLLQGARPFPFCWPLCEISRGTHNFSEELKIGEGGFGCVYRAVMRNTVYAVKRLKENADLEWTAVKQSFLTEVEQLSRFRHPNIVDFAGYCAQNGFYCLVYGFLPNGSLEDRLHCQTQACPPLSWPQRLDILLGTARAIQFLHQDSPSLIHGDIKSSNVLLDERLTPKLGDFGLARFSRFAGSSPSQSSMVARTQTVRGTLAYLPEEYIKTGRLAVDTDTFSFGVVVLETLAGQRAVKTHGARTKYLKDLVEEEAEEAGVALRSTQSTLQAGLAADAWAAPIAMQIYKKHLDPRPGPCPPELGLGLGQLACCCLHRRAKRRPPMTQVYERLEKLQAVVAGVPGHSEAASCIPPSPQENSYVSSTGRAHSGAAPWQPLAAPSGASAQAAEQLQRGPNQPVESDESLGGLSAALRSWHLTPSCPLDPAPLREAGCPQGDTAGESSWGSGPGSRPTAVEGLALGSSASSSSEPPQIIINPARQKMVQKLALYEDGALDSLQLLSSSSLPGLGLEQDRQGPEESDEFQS

IRAK4 = target: T2, IRAK4 (Homo sapiens, UniProt Q9NWZ3); test: RBC HotSpot Kinase Assay, IRAK4; conditions: IRAK4 IC50
T2 sequence (Q9NWZ3 1-460): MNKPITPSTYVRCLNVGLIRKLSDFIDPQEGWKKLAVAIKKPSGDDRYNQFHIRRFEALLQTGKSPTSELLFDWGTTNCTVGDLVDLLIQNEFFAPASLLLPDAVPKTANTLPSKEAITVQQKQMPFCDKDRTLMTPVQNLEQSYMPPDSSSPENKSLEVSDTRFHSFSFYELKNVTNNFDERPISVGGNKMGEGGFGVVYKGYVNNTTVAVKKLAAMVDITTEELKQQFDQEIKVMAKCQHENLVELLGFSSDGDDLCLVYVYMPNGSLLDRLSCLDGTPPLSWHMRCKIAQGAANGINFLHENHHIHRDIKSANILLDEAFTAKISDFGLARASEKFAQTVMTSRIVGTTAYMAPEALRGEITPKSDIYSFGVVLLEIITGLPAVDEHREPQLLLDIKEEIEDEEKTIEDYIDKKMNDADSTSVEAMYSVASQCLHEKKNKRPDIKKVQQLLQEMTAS

Compound | IC50 (MOLM14 D835Y cells) [nM] | IC50 (MOLM14 F691L cells) [nM] | IC50 (FLT3) [nM] | IC50 (IRAK1) [nM] | IC50 (IRAK4) [nM]
COc1ccn2c(-c3cncc(N[C@H]4CNC[C@@H]4F)n3)cnc2c1 [Compound 4, N-((3S,4S)-4-fluoropyrrolidin-3-yl)-6-(7-methoxyimidazo[1,2-a]pyridin-3-yl)pyrazin-2-amine] | 77 | 244 | < 0.5 | 29 | 2
FC(F)COc1ccn2c(-c3cncc(N[C@H]4CNC[C@@H]4F)n3)cnc2c1 [Compound 7] | 69 | 217 | < 0.5 | 85 | 4
c1cn2c(-c3cncc(N[C@@H]4CCCNC4)n3)cnc2cc1OC1CC1 [Compound 11, (R)-6-(7-cyclopropoxyimidazo[1,2-a]pyridin-3-yl)-N-(piperidin-3-yl)pyrazin-2-amine] | 43 | 109 | < 0.5 | 85 | 5
FC(F)Oc1ccn2c(-c3cncc(N[C@@H]4CCCNC4)n3)cnc2c1 [Compound 14, (R)-6-(7-(difluoromethoxy)imidazo [1,2-a]pyridin-3-yl)-N-(piperidin-3-yl)pyrazin-2-amine] | 86 | 193 | 0.8 | 447 | 12
COc1cc2ncc(-c3cncc(N[C@H]4CNC[C@@H]4F)n3)n2cc1C(C)(C)O [Compound 19, 2-(3-(6-(((3S,4S)-4-fluoropyrrolidin-3-yl)amino)pyrazin-2-yl)-7-methoxyimidazo[1,2-a]pyridin-6-yl)propan-2-ol] | 109 | 193 | < 0.5 | 3 | 0.8
COc1cc2ncc(-c3cncc(N[C@@H]4CCCNC4)n3)n2cc1C(C)(C)O [Compound 20, (R)-2-(7-methoxy-3-(6-(piperidin-3-ylamino)pyrazin-2-yl)imidazo[1,2-a]pyridin-6-yl)propan-2-ol] | 43 | 61 | < 0.5 | 5 | 1
FC(F)COc1ccn2c(-c3ccnc(N[C@H]4CNC[C@@H]4F)n3)cnc2c1 [Compound 31, 4-(7-(2,2-difluoroethoxy)imidazo[1,2-a]pyridin-3-yl)-N-((3S,4S)-4-fluoropyrrolidin-3-yl)pyrimidin-2-amine] | 15 | 344 | < 0.5 | 9 | 0.7

Continued by falling IC50 (MOLM14 D835Y cells), values first:

IC50 (MOLM14 D835Y cells) [nM] | IC50 (MOLM14 F691L cells) [nM] | IC50 (FLT3) [nM] | IC50 (IRAK1) [nM] | IC50 (IRAK4) [nM] | Compound
307 | 864 | 1 | 86 | 21 | FC(F)Oc1ccn2c(-c3cncc(N[C@H]4CNC[C@@H]4F)n3)cnc2c1 [Compound 13, 6-(7-(difluoromethoxy)imidazo [1,2-a]pyridin-3-yl)-N-((3S,4S)-4-fluoropyrrolidin-3-yl)pyrazin-2-amine]
244 | 770 | < 0.5 | 24 | 9 | F[C@H]1CNC[C@@H]1Nc1cncc(-c2cnc3cc(OC4CC4)ccn23)n1 [Compound 10, 6-(7-cyclopropoxyimidazo[1,2-a]pyridin-3-yl)-N-((3S,4S)-4-fluoropyrrolidin-3-yl)pyrazin-2-amine]
14 | 39 | < 0.5 | 42 | < 0.5 | FC(F)COc1ccn2c(-c3cncc(N[C@@H]4CCCNC4)n3)cnc2c1 [Compound 8, (R)-6-(7-(2,2-difluoroethoxy)imidazo[1,2-a]pyridin-3-yl)-N-(piperidin-3-yl)pyrazin-2-amine]
12 | 109 | < 0.5 | 13 | < 0.5 | COc1ccn2c(-c3ccnc(N[C@@H]4CCCNC4)n3)cnc2c1 [Compound 29, (R)-4-(7-methoxyimidazo[1,2-a]pyridin-3-yl)-N-(piperidin-3-yl)pyrimidin-2-amine]
